Data on ten compounds can be found in ChEMBL document CHEMBL4038280, “Synthesis and human/bacterial carbonic anhydrase inhibition with a series of sulfonamides incorporating phthalimido moieties” (Bioorg Med Chem, 2017).

Molecules are shown by their SMILES.

Assay [1] is described as follows: Inhibition of Vibrio cholerae alpha carbonic anhydrase preincubated for 15 mins by stopped flow CO2 hydration assay.
Assay [2] can be described thus: Inhibition of Vibrio cholerae beta carbonic anhydrase preincubated for 15 mins by stopped flow CO2 hydration assay.

A word on the Ki: it is a measure of affinity in units of concentration, obtained from inhibition or displacement. The low end stands for a stronger hold on the target, the high end for a looser hold on the target. Consider `COc1cc(NC(=O)c2ccc3c(c2)C(=O)N(c2ccc(S(N)(=O)=O)cc2)C3=O)c(C(=O)O)cc1OC`, for which the Ki came out at 2.84 µM in assay [1] and 7.97 µM in assay [2].
Consider `Cc1ccc(NC(=O)c2ccc3c(c2)C(=O)N(c2ccc(S(N)(=O)=O)cc2)C3=O)c(C(=O)O)c1`, for which the Ki in assay [1] amounted to 1.68 µM; in assay [2], 5.42 µM.
As to `COc1cc(NC(=O)c2ccc3c(c2)C(=O)N(CCc2ccc(S(N)(=O)=O)cc2)C3=O)c(C(=O)O)cc1OC`, the Ki was 3.19 µM in assay [1] and 8.58 µM in assay [2].
Taken in the same sequence, the figures for `Cc1ccc(NC(=O)c2ccc3c(c2)C(=O)N(CCc2ccc(S(N)(=O)=O)cc2)C3=O)c(C(=O)O)c1` were 1.96 µM and 9.26 µM.
On the same counts, the results for `Cc1ccc(NC(=O)c2ccc3c(c2)C(=O)N(Cc2ccc(S(N)(=O)=O)cc2)C3=O)c(C(=O)O)c1` are 2.59 µM and 8.2 µM.
As to `COc1cc(NC(=O)c2ccc3c(c2)C(=O)N(Cc2ccc(S(N)(=O)=O)cc2)C3=O)c(C(=O)O)cc1OC`, the Ki in assay [1] turned out to be 2.93 µM; in assay [2], 9.26 µM.
For the compound `NS(=O)(=O)c1ccc(N2C(=O)c3ccc(C(=O)Nc4ccc(I)cc4C(=O)O)cc3C2=O)cc1`, the Ki in assay [1] was determined as 0.281 µM; in assay [2], 5.4 µM.
On the same counts, the results for `NS(=O)(=O)c1ccc(CCN2C(=O)c3ccc(C(=O)Nc4ccc(I)cc4C(=O)O)cc3C2=O)cc1` are 2.58 µM and 6.75 µM.
`NS(=O)(=O)c1ccc(CN2C(=O)c3ccc(C(=O)Nc4ccc(I)cc4C(=O)O)cc3C2=O)cc1`: the Ki in assay [1] came out at 1.33 µM; in assay [2], 6.78 µM.
For the compound `CC(=O)Nc1nnc(S(N)(=O)=O)s1` [ACETAZOLAMIDE], the figures for the Ki in assay [1] and in assay [2] were […] and […], respectively.
